Measured values reported in ChEMBL document CHEMBL1143690, “The effects of N-terminal part modification of arginine vasopressin analogues with 2-aminoindane-2-carboxylic acid: a highly potent V2 agonist” (J Med Chem, 2007).
Activity calls are given as the source filed them. No cut-off for these calls is given here. Positions of bridges follow the written chain, without caps; N, C: chain ends. Non-standard residues stand in square brackets, D forms with d. Residues, ends and D or L forms follow the SMILES beside them. Aic = NC1(C(=O)O)Cc2ccccc2C1

Legend:
Rattus norvegicus [1] = species: Rattus norvegicus; assay: In vitro uterotonic activity in Wistar rat oxytocic uterus in absence of Mg2+; assay type: functional; details: for Kb: read-out: pA2 (converted)
Rattus norvegicus [2] = assay: Antidiuretic activity in sc dosed conscious Wistar rat in an antidiuresis time of t1/2 200 mins relative to AVP; assay type: functional, Urine
Rattus norvegicus [3] = species: Rattus norvegicus; assay: Effect on arterial blood pressure in Wistar rat in pressor test; assay type: functional, organism-based; details: for Kb: Rattus norvegicus, Wistar, Arterial blood, read-out: pA2 (converted)
Rattus norvegicus [4] = assay: Antidiuretic activity in sc dosed conscious Wistar rat in an antidiuresis time of t1/2 60 mins relative to AVP; assay type: functional, Urine
Rattus norvegicus [5] = assay: Antidiuretic activity in sc dosed conscious Wistar rat in an antidiuresis time of t1/2 60 mins relative to dDAVP; assay type: functional, Urine
Rattus norvegicus [6] = assay: Antidiuretic activity in sc dosed conscious Wistar rat in an antidiuresis time of t1/2 200 mins relative to dDAVP; assay type: functional, Urine

SMILES | Kb (Rattus norvegicus [1]) | Activity (Rattus norvegicus [2]) | Activity (Rattus norvegicus [4]) | Activity (Rattus norvegicus [5]) | Activity (Rattus norvegicus [6]) | Activity (Rattus norvegicus [3]) | other results
CC(C)[C@@H]1NC(=O)[C@H](Cc2ccccc2)NC(=O)C2(CCCCC2)NC(=O)CCSSC[C@@H](C(=O)N2CCC[C@H]2C(=O)N[C@H](CCCN=C(N)N)C(=O)NCC(N)=O)NC(=O)[C@H](CC(N)=O)NC1=O | 15.5 nM | 50000 IU/mg | 4500 IU/mg | 50% | 10% | – | Kb (Rattus norvegicus [3]): 724 nM
NC(=O)CC[C@@H]1NC(=O)[C@H](Cc2ccccc2)NC(=O)C2(Cc3ccccc3C2)NC(=O)[C@@H](N)CSSC[C@@H](C(=O)N2CCC[C@H]2C(=O)N[C@@H](CCCN=C(N)N)C(=O)NCC(N)=O)NC(=O)[C@H](CC(N)=O)NC1=O [listing 1 of 2 here] | 53.7 nM | – | – | – | – | – | –
CC(C)[C@@H]1NC(=O)[C@H](Cc2ccccc2)NC(=O)C2(Cc3ccccc3C2)NC(=O)[C@@H](N)CSSC[C@@H](C(=O)N2CCC[C@H]2C(=O)N[C@@H](CCCN=C(N)N)C(=O)NCC(N)=O)NC(=O)[C@H](CC(N)=O)NC1=O (H-C[Aic]FVNCPRG-NH2; disulfide 1-6) [listing 1 of 2 here] | – | 45000 IU/mg | 450 IU/mg | 10% | 10% | 0 IU/mg | –
NC(=O)CC[C@@H]1NC(=O)[C@H](Cc2ccccc2)NC(=O)C2(Cc3ccccc3C2)NC(=O)CCSSC[C@@H](C(=O)N2CCC[C@H]2C(=O)N[C@@H](CCCN=C(N)N)C(=O)NCC(N)=O)NC(=O)[C@H](CC(N)=O)NC1=O [listing 1 of 2 here] | 31.6 nM | – | – | – | – | – | –
NC(=O)CC[C@@H]1NC(=O)[C@H](Cc2ccccc2)NC(=O)C2(Cc3ccccc3C2)NC(=O)[C@@H](N)CSSC[C@@H](C(=O)N2CCC[C@H]2C(=O)N[C@H](CCCN=C(N)N)C(=O)NCC(N)=O)NC(=O)[C@H](CC(N)=O)NC1=O [listing 1 of 2 here] | 138 nM | – | – | – | – | – | –
NC(=O)CC[C@@H]1NC(=O)[C@H](Cc2ccccc2)NC(=O)C2(Cc3ccccc3C2)NC(=O)CCSSC[C@@H](C(=O)N2CCC[C@H]2C(=O)N[C@H](CCCN=C(N)N)C(=O)NCC(N)=O)NC(=O)[C@H](CC(N)=O)NC1=O [listing 1 of 2 here] | – | 45000 IU/mg | 450 IU/mg | 10% | 10% | – | –
CC(C)[C@@H]1NC(=O)[C@H](Cc2ccccc2)NC(=O)C2(Cc3ccccc3C2)NC(=O)[C@@H](N)CSSC[C@@H](C(=O)N2CCC[C@H]2C(=O)N[C@@H](CCCN=C(N)N)C(=O)NCC(N)=O)NC(=O)[C@H](CC(N)=O)NC1=O (H-C[Aic]FVNCPRG-NH2; disulfide 1-6) [listing 2 of 2 here] | 11.7 nM | – | – | – | – | – | –
NC(=O)CC[C@@H]1NC(=O)[C@H](Cc2ccccc2)NC(=O)C2(Cc3ccccc3C2)NC(=O)[C@@H](N)CSSC[C@@H](C(=O)N2CCC[C@H]2C(=O)N[C@@H](CCCN=C(N)N)C(=O)NCC(N)=O)NC(=O)[C@H](CC(N)=O)NC1=O [listing 2 of 2 here] | – | 45000 IU/mg | 450 IU/mg | 10% | 10% | 9.4 IU/mg | –
NC(=O)CC[C@@H]1NC(=O)C2(Cc3ccccc3C2)NC(=O)[C@H](Cc2ccc(O)cc2)NC(=O)CCSSC[C@H](C(=O)N2CCC[C@H]2C(=O)N[C@@H](CCCN=C(N)N)C(=O)NCC(N)=O)NC(=O)[C@H](CC(N)=O)NC1=O | – | – | – | – | – | inactive | Activity (Rattus norvegicus [1]): inactive; Activity (Rattus norvegicus [2]; Urine): inactive; Activity (Rattus norvegicus [4]; Urine): inactive; Activity (Rattus norvegicus [5]; Urine): inactive; Activity (Rattus norvegicus [6]; Urine): inactive
NC(=O)CC[C@@H]1NC(=O)C2(Cc3ccccc3C2)NC(=O)[C@H](Cc2ccc(O)cc2)NC(=O)[C@H](N)CSSC[C@H](C(=O)N2CCC[C@H]2C(=O)N[C@@H](CCCN=C(N)N)C(=O)NCC(N)=O)NC(=O)[C@H](CC(N)=O)NC1=O | – | – | – | – | – | inactive | Activity (Rattus norvegicus [1]): inactive; Activity (Rattus norvegicus [2]; Urine): inactive; Activity (Rattus norvegicus [4]; Urine): inactive; Activity (Rattus norvegicus [5]; Urine): inactive; Activity (Rattus norvegicus [6]; Urine): inactive
NC(=O)CC[C@@H]1NC(=O)[C@H](Cc2ccccc2)NC(=O)C2(Cc3ccccc3C2)NC(=O)CCSSC[C@@H](C(=O)N2CCC[C@H]2C(=O)N[C@H](CCCN=C(N)N)C(=O)NCC(N)=O)NC(=O)[C@H](CC(N)=O)NC1=O [listing 2 of 2 here] | 49 nM | – | – | – | – | – | Kb (Rattus norvegicus [3]): 2510 nM
NC(=O)CC[C@@H]1NC(=O)[C@H](Cc2ccccc2)NC(=O)C2(Cc3ccccc3C2)NC(=O)CCSSC[C@@H](C(=O)N2CCC[C@H]2C(=O)N[C@@H](CCCN=C(N)N)C(=O)NCC(N)=O)NC(=O)[C@H](CC(N)=O)NC1=O [listing 2 of 2 here] | – | 45000 IU/mg | 450 IU/mg | 10% | 10% | 5.3 IU/mg | –
CC(C)[C@@H]1NC(=O)[C@H](Cc2ccccc2)NC(=O)C2(Cc3ccccc3C2)NC(=O)CCSSC[C@@H](C(=O)N2CCC[C@H]2C(=O)N[C@H](CCCN=C(N)N)C(=O)NCC(N)=O)NC(=O)[C@H](CC(N)=O)NC1=O [listing 1 of 2 here] | – | 450000 IU/mg | 4500 IU/mg | 50% | 100% | – | –
NC(=O)CC[C@@H]1NC(=O)[C@H](Cc2ccccc2)NC(=O)C2(Cc3ccccc3C2)NC(=O)[C@@H](N)CSSC[C@@H](C(=O)N2CCC[C@H]2C(=O)N[C@H](CCCN=C(N)N)C(=O)NCC(N)=O)NC(=O)[C@H](CC(N)=O)NC1=O [listing 2 of 2 here] | – | 4500 IU/mg | 45 IU/mg | 1% | 1% | 0 IU/mg | –
NC(=O)CC[C@@H]1NC(=O)C2(Cc3ccccc3C2)NC(=O)[C@H](Cc2ccc(O)cc2)NC(=O)[C@H](N)CSSC[C@H](C(=O)N2CCC[C@H]2C(=O)N[C@H](CCCN=C(N)N)C(=O)NCC(N)=O)NC(=O)[C@H](CC(N)=O)NC1=O | – | – | – | – | – | inactive | Activity (Rattus norvegicus [1]): inactive; Activity (Rattus norvegicus [2]; Urine): inactive; Activity (Rattus norvegicus [4]; Urine): inactive; Activity (Rattus norvegicus [5]; Urine): inactive; Activity (Rattus norvegicus [6]; Urine): inactive
CC(C)[C@@H]1NC(=O)[C@H](Cc2ccccc2)NC(=O)C2(Cc3ccccc3C2)NC(=O)CCSSC[C@@H](C(=O)N2CCC[C@H]2C(=O)N[C@H](CCCN=C(N)N)C(=O)NCC(N)=O)NC(=O)[C@H](CC(N)=O)NC1=O [listing 2 of 2 here] | 8.71 nM | – | – | – | – | – | Kb (Rattus norvegicus [3]): 562 nM
